These results are taken from patent US20120141467A1, “Ascorbic acid to treat chronic obstructive lung diseases and non-Hodgkin's lymphoma” (priority 2010, published 2012).

The data set deals with upper respiratory mucosa. Description: Safety tests of topical ascorbate (spray, lozenge) on upper respiratory mucosa. As to conditions: Three ml oral/nasal spray in sterile water three times daily for six months.

From the text: Initiation of the test sought first to assure that the designed aerosol would be safely tolerated by the IC's respiratory mucosa.

`O=C1O[C@H]([C@@H](O)CO)C(O)=C1O` [ascorbate]: the “Adverse effects of spray on upper respiratory mucosa” value is “no adverse effects”.
